According to patent US20250290915A1, “METHOD FOR PREDICTING RESPONSIVENESS TO THERAPY” (CANCERTAIN LIMITED, priority 2022, published 2025):

Assays:
Type in all cases: cell-based, human
[1] = system: Circulating Tumour Cells (CTCs) from a patient with rectal cancer (anorectal carcinoma with secondary lung cancer); assay: Drug response score assay on CTCs (with CD45+ cells for immunotherapy) from blood, Example 3; conditions: for Drug response score, conc. 1: conc. 1: Pembro 20 μg/ml, Nivo 20 μg/ml (CTCs + CD45+ cells), Lenva 50 ng/ml, Regor 60 μg/ml (CTCs); for Drug response score, conc. 1 / Drug response score, conc. 2 / Drug response score, conc. 3 / Drug response score, conc. 4: t96h; for Drug response score, conc. 2: conc. 2: Pembro 40 μg/ml, Nivo 40 μg/ml (CTCs + CD45+ cells), Lenva 100 ng/ml, Regor 80 μg/ml (CTCs); for Drug response score, conc. 3: conc. 3: Pembro 100 μg/ml, Nivo 80 μg/ml (CTCs + CD45+ cells), Lenva 200 ng/ml, Regor 120 μg/ml (CTCs); for Drug response score, conc. 4: conc. 4: Pembro 160 μg/ml, Nivo 160 μg/ml (CTCs + CD45+ cells), Lenva 400 ng/ml, Regor 160 μg/ml (CTCs); for effectiveness on Circulating Tumour Cells under laboratory conditions / Drug sensitivity as calculated by the assay (interpretation of Drug Response Scores): rectal cancer CTCs; for Drug sensitivity as calculated by the assay (interpretation of Drug Response Scores): Table 11
Experimental: (§1) CD45^+ cells and circulating tumour cells (CTCs) were isolated from a blood sample provided by each subject.
(§2) CD45 separation was performed by adding human CD45 microbeads (50 μl/ml blood), incubating for 15 minutes at 4° C. and then processing using an AutoMACS machine. This separates the blood sample into CD45^+ and CD45^−cells in 2 separate falcons. The falcon tubes are then centrifuged at 1200 rpm for 5 minutes.
(§3) The supernatant was removed from the CD45^+falcon tube, and the cells resuspended in DMEM with 2 μl Cell Tox, 2 μl MT and 2 μl MT. 20 μl of the resuspended CD45^+ cells was then plated in each well which will contain an immunotherapy treatment.
(§4) The supernatant was removed from the CD45^−falcon tube, and the CD45^−cells contacted with 100 μl of FcR block and 100 μl of CD326 (EpCAM) MicroBeads, followed by incubation at […] 4° C. for 30 minutes. The CD45^−cells were then processed using an AutoMACS machine to separate the EpCAM positive and negative cells into 2 separate falcon tubes. The EpCAM-cells were discarded. The supernatant was removed from the EpCAM^+ cells, and the cells resuspended in DMEM with 2 μl Cell Tox, 2 μl MT and 2 μl MT. 20 μl of the resuspended pellet was then added to all sample wells excluding a blank. After all wells are added to, a cell count was conducted on the […] to determine the number of circulating tumour cells (CTCs).
(§5) The different cell types were each divided equally into populations, depending on the number of drugs/concentrations to be tested and plated on a cell-culture plate pre-coated with a scaffold of polycaprolactone (PCL) electrospun fibres and incubated at 37° C., 5% CO2, for 5 to (typically 10) minutes to facilitate cell attachment. After attachment, an initial imaging step was carried out using the RealTime-Glo™ MT assay from Promega (Catalogue No. G9711)) and the CellTox™ Green Cytotoxicity Assay (Promega, Catalogue No. G8741), carried out according to manufacturer's instructions. Following this initial imagining, the immunotherapeutic and/or chemotherapeutic agents were added to the cell populations as indicated below. After 10 minutes, the imagining step was repeated. The cell populations were then incubated at 37° C., 5% CO2 for 48 hours. The imaging step was then repeated. The cell populations were then re-dosed with the same immunotherapeutic and/or chemotherapeutic agents as indicated below, and incubated at 37° C., 5% CO2 for a further 48 hours. After this second 48 hour incubation, the imagining step was repeated for a final time.
(§6) At the end of this culture period, dose response scores were calculated using a normalized drug response metric as described in Gupta et al. (Communications Biology volume 3, Article number: 42 (2020), https://doi.org/10.1038/s42003-020-0765-z). The start readout for a given immunotherapeutic or chemotherapeutic agent at a given concentration was the to readout for said immunotherapeutic or chemotherapeutic agent at a specified concentration. The end readout for a given immunotherapeutic or chemotherapeutic agent at a given concentration was the final timepoint reading (t96h) for said immunotherapeutic or chemotherapeutic agent at a specified concentration.
(§7) The positive control start readout for a given drug/concentration was the to readout for the corresponding drug at a specified concentration. The positive control end readout for the corresponding drug at a specified concentration was the final timepoint reading (t96h) for the corresponding blank well.
(§8) The negative control start and end readouts for a given immunotherapeutic or chemotherapeutic agent at a given concentration were the to and final timepoint reading (t96h) respectively for blank cell or blank immuno cell well respectively.
(§9) The sensitivity or resistance of a subject's cancer to a given immunotherapeutic or chemotherapeutic agent was determined based on the calculated drug response score as shown in Table 2. […]

[2] = system: Circulating Tumour Cells (CTCs) from a patient with renal cancer; assay: Drug response score assay on CTCs (with CD45+ cells for immunotherapy) from blood, Example 7; set-up: key to Drug response score, conc. 1 / Drug response score, conc. 2 / Drug response score, conc. 3 / Drug response score, conc. 4: normalized drug response metric per Gupta et al. 2020; conditions: for Drug response score, conc. 1: conc. 1: Pembr 20 μg/ml (CTCs + CD45+ cells), Docetax 0.02 μg/ml, Gemcit 2 μg/ml, Topo 5 μg/ml, Etop 1 μg/ml, Eribul 5 μg/ml (CTCs); for Drug response score, conc. 1 / Drug response score, conc. 2 / Drug response score, conc. 3 / Drug response score, conc. 4: t96h; for Drug response score, conc. 2: conc. 2: Pembr 40 μg/ml (CTCs + CD45+ cells), Docetax 0.2 μg/ml, Gemcit 10 μg/ml, Topo 10 μg/ml, Etop 4 μg/ml, Eribul 10 μg/ml (CTCs); for Drug response score, conc. 3: conc. 3: Pembr 100 μg/ml (CTCs + CD45+ cells), Docetax 2 μg/ml, Gemcit 20 μg/ml, Topo 50 μg/ml, Etop 20 μg/ml, Eribul 20 μg/ml (CTCs); for Drug response score, conc. 4: conc. 4: Pembr 160 μg/ml (CTCs + CD45+ cells), Docetax 10 μg/ml, Gemcit 40 μg/ml, Topo 100 μg/ml, Etop 100 μg/ml, Eribul 40 μg/ml (CTCs); for effectiveness on Circulating Tumour Cells under laboratory conditions / Drug sensitivity as calculated by the assay (interpretation of Drug Response Scores): renal cancer CTCs; for Drug sensitivity as calculated by the assay (interpretation of Drug Response Scores): Table 23
Experimental: as §1, §2, §3, §4, §5, §6, §7, §8, §9

[3] = system: Circulating tumour cells (CTCs) from a patient with GI cancer (Cholangio Carcinoma, stage 4); assay: Drug response score assay on blood sample, Example 9; set-up: key to Drug response score from blood sample, conc. 1 / Drug response score from blood sample, conc. 2 / Drug response score from blood sample, conc. 3 / Drug response score from blood sample, conc. 4: normalized drug response metric per Gupta et al. 2020; conditions: for effectiveness on Circulating Tumour Cells under laboratory conditions: GI cancer (Cholangio Carcinoma) blood sample; for Drug response score from blood sample, conc. 1: conc. 1 of each drug as in Table 27; for Drug response score from blood sample, conc. 1 / Drug response score from blood sample, conc. 2 / Drug response score from blood sample, conc. 3 / Drug response score from blood sample, conc. 4: t96h; for Drug response score from blood sample, conc. 2: conc. 2 of each drug as in Table 27; for Drug response score from blood sample, conc. 3: conc. 3 of each drug as in Table 27; for Drug response score from blood sample, conc. 4: conc. 4 of each drug as in Table 27; for Drug sensitivity as calculated by the assay, Blood: interpretation based on Drug Response Scores; for Drug response score from blood sample, conc. 1 / Drug response score from blood sample, conc. 2 / Drug response score from blood sample, conc. 3 / Drug response score from blood sample, conc. 4 / Drug sensitivity as calculated by the assay, Blood: blood sample
Experimental: as §1, §2, §3, §4, §5, §6, §7, §8, §9

[4] = system: Circulating Tumour Cells (CTCs) from a patient with colon cancer (sigmoid colon cancer); assay: Drug response score assay on CTCs from blood, Example 8; set-up: key to Drug response score, conc. 1 / Drug response score, conc. 2 / Drug response score, conc. 3 / Drug response score, conc. 4: normalized drug response metric (Gupta et al. 2020); conditions: for Drug response score, conc. 1: conc. 1 of each drug as in Table 24; for Drug response score, conc. 1 / Drug response score, conc. 2 / Drug response score, conc. 3 / Drug response score, conc. 4: CTCs, t96h; for Drug response score, conc. 2: conc. 2 of each drug as in Table 24; for Drug response score, conc. 3: conc. 3 of each drug as in Table 24; for Drug response score, conc. 4: conc. 4 of each drug as in Table 24; for Drug sensitivity as calculated by the assay (interpretation of Drug Response Scores): sigmoid colon cancer CTCs, Table 26
In short: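 EpCAM+ CTCs isolated from patient blood by CD45 depletion then EpCAM bead selection, and imaged with RealTime-Glo MT viability and CellTox Green cytotoxicity reagents. Agents added, cells cultured at 37° C, 5% CO2 for 48 h, re-dosed, then a further 48 h. Score calculated by normalized drug response metric from t0 and t96h readouts against blank-well controls.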

Row | Compound | Drug response score, conc. 1 [1] | Drug response score, conc. 2 [1] | Drug response score, conc. 3 [1] | Drug response score, conc. 4 [1] | effectiveness on Circulating Tumour Cells under laboratory conditions [1] | Drug sensitivity as calculated by the assay (interpretation of Drug Response Scores) [1] | Drug response score, conc. 1 [2] | Drug response score, conc. 2 [2] | Drug response score, conc. 3 [2] | Drug response score, conc. 4 [2] | Drug sensitivity as calculated by the assay (interpretation of Drug Response Scores) [2] | effectiveness on Circulating Tumour Cells under laboratory conditions [3] | Drug response score from blood sample, conc. 1 [3] | Drug response score from blood sample, conc. 2 [3] | Drug response score from blood sample, conc. 3 [3] | Drug response score from blood sample, conc. 4 [3] | Drug response score, conc. 1 [4] | Drug response score, conc. 2 [4] | Drug response score, conc. 3 [4] | Drug sensitivity as calculated by the assay (interpretation of Drug Response Scores) [4] | further results
1 | Pembrolizumab | 0.6167 | 0.4053 | 0.9748 | 0.7712 | Sensitive S+ | Sensitive (S+) | −0.0194 | 0.1577 | 0.0468 | −0.0364 | Sensitive (S+) | S+ | 0.00068 | 0.1572 | 1.041 | 0.6989 | – | – | – | – | effectiveness on Circulating Tumour Cells under laboratory conditions [2]: Sensitive S+; Drug sensitivity as calculated by the assay, Blood [3]: S+
2 | COc1cc([C@@H]2c3cc4c(cc3[C@@H](O[C@@H]3O[C@@H]5CO[C@@H](C)O[C@H]5[C@H](O)[C@H]3O)[C@H]3COC(=O)[C@H]23)OCO4)cc(OC)c1O [Etoposide] | – | – | – | – | – | – | −0.2179 | −0.1141 | −0.1357 | −0.0050 | Sensitive (S++) | – | – | – | – | – | −0.4099 | −0.6338 | −0.6648 | Sensitive (S++) | effectiveness on Circulating Tumour Cells under laboratory conditions [2]: Sensitive S++; Drug response score, conc. 4 [4]: 0.1129
3 | Nivolumab | 0.4990 | 0.6429 | 0.6261 | 1.0807 | Sensitive S+ | Sensitive (S+) | – | – | – | – | – | – | 1 | 0.2783 | 1.061 | 1.046 | – | – | – | – | –
4 | COc1cc2nccc(Oc3ccc(NC(=O)NC4CC4)c(Cl)c3)c2cc1C(N)=O [Lenvatinib] | 2.0109 | 1.6409 | 0.8991 | 2.0235 | not effective | Resistant | – | – | – | – | – | S+ | 0.2851 | 0.3155 | 0.4097 | 0.6214 | – | – | – | – | Drug sensitivity as calculated by the assay, Blood [3]: S+
5 | CC(=O)O[C@H]1C(=O)[C@@]2(C)[C@H]([C@H](OC(=O)c3ccccc3)[C@]3(O)C[C@H](OC(=O)[C@H](O)[C@@H](NC(=O)c4ccccc4)c4ccccc4)C(C)=C1C3(C)C)[C@]1(OC(C)=O)CO[C@@H]1C[C@@H]2O [Paclitaxel] | – | – | – | – | – | – | – | – | – | – | – | S+ | 0.2346 | 0.5329 | 0.5298 | 0.756 | −0.8976 | −0.1500 | −0.5818 | Sensitive (S++) | Drug response score, conc. 4 [4]: −0.8009
6 | COc1cccc2c1C(=O)c1c(O)c3c(c(O)c1C2=O)C[C@@](O)(C(=O)CO)C[C@@H]3O[C@H]1C[C@H](N)[C@H](O)[C@H](C)O1 [Doxorubicin] | – | – | – | – | – | – | – | – | – | – | – | – | – | – | – | – | −0.0102 | −0.0852 | −0.2828 | Sensitive (S++) | –
7 | CC(=O)O[C@@]12CO[C@@H]1C[C@H](O)[C@@]1(C)C(=O)[C@H](O)C3=C(C)[C@@H](OC(=O)[C@H](O)[C@@H](NC(=O)OC(C)(C)C)c4ccccc4)C[C@@](O)([C@@H](OC(=O)c4ccccc4)[C@H]21)C3(C)C [Docetaxel] | – | – | – | – | – | – | 0.0585 | −0.1811 | 0.0514 | −0.1468 | Sensitive (S+) | – | – | – | – | – | – | – | – | – | –
